# Numbered stars: 1 amine (or outer) side, 2 acyl side, 3 side chain; on linkers, the order of the positions; unused ones are H or OH. Square brackets hold non-standard residues; d marks the D form. Side chains are listed from the residue outwards. Peptide text beside a SMILES is read from it. * marks the point of attachment. γGlu = O=C(O)[C@H](CCC(=O)[*:2])N[*:1]; Palmitoyl = CCCCCCCCCCCCCCCC(=O)*; Aib = CC(C)(N)C(=O)O
# Assays:
# [1] = Solubility assessment (UPLC-UV); format: physicochemical; conditions: acetate buffer pH 4.5, 2.7 mg/ml m-cresol (buffer system A), target 10 mg/ml
# In short: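 Peptides at 10 mg/mL (purity-corrected, by UPLC/MS) in 100 mM acetate buffer pH 4.5 with 2.7 mg/ml m-Cresol, gently agitated 1 hour, then centrifuged 15 min at 2500 RCF. Supernatant, diluted 1:10, quantified by UPLC-UV peak area against a reference peptide standard curve, extinction-coefficient corrected.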
# [2] = test system: female diet-induced obese (DIO) C57BL/6NHsd mice; experiment: Acute and chronic effects after subcutaneous treatment in female diet-induced obese (DIO) mice; format: in vivo, mouse
# Method: Female C57BL/6NHsd mice were ordered group housed from Envigo RMS Inc., shipped group housed and remained group housed with shipped cage mates in shoebox caging with wood chip bedding until day 38 of the predose phase. At the study start mice were between 25-26 weeks old.
# Mice were housed under vivarium conditions that included a 12 h light/dark cycle (light phase 04:00 AM-4:00 PM), room temperatures between 23-26° C. and a relative humidity between 30-70%. All animals had free access to water and a high fat diet (TD97366) for 16 weeks prior to pharmacological intervention (dosing phase). Feed was replaced with fresh feed weekly until and for the last time on day 38 of the predose phase. During the subsequent dosing phase, approximately 50% of the remaining feed were removed, replaced with fresh feed, and pellets were mixed evenly once per week.
# On predose day 38, obese DIO mice were assigned to treatment groups (n=8) to match mean body masses between all DIO groups. An age-matched group with ad libitum access to a rodent maintenance diet (Teklad Global Diets Rodent 2014, pelleted) was included in the study as a lean control group. In the predosing phase from day 32 through 38, all study animals were treated with vehicle (Phosphate Buffered Saline, PBS, Gibco, without CaCl2 and MgCl2) once daily (s.c. approximately 0.2 mL/mouse).
# On day 37 of the predose phase, the test article was diluted with PBS to a concentration of 100 μg/mL and aliquots of this stock solution were stored at approximately ≤−60° C. Stock aliquots were thawed for weekly use and thereafter stored in a refrigerator at approximately 4° C. The injected test article solution was prepared fresh once on each dosing day by diluting stock solution with PBS to achieve the desired concentration.
# Mice were treated twice daily with a s.c. injection of PBS-vehicle or the test article for 28 days. The morning dosing was initiated and completed between 06:00 and 07:30 AM and the afternoon dosing between 2:00 and 3:30 PM. On day 28 of the dosing phase only the morning dose was administered. The applied volume was 5 ml/kg and the dose was adjusted to the most recent body mass recording of each individual.
# Animals had unlimited access to water and feed during the experiment. On day 1 of the dosing phase approximately 5 μL of blood were collected via tail clips at hour 0, prior to the first s.c. dose of PBS-vehicle or test-article as well as 1, 2, 3, 4, 6, and 24 hours post-dose. Animals received the second s.c. dose of PBS-vehicle or test-article 8 hours after the first dose. The 24 hour blood collection of the blood glucose profile was performed prior to dosing on day 2. Glucose measurements were performed in whole blood and in duplicate or triplicate using Aviva glucometers.
# Body mass was measured daily approximately between 06:00-07:30 AM from day 32 through 38 of the predosing phase and throughout the 28 days of the dosing phase. During the dosing phase mice were treated twice daily with either a s.c. injection of PBS-vehicle or test article.
# To determine whole body fat mass Quantitative Nuclear Magnetic Resonance (QNMR) measurements were performed on predosing day 37 and on day 26 of the dosing phase. During the dosing phase mice were treated twice daily with either a s.c. injection of PBS-vehicle or test article.
# On day 28 blood was collected prior to any other inlife activities for determination of plasma insulin concentrations. Then the morning dose was administered and necropsy was performed 4 hours post-dose. For this purpose animals were anesthetized with isoflurane and blood was collected by orbital bleeding.
# On day 28 and 4 hours after the morning dose, blood was collected from mice under isoflurane anesthesia as described above. Then mice were killed and livers were collected and weighed.
# Data are depicted as means±SEM. […] A One-Way ANOVA and Tukey Test were used for pairwise multiple comparisons of all groups (n=8/group, deviations from group size are indicated). […]
# [3] = 30 μg/kg s.c. twice daily, day 28, in words
# [4] = 30 μg/kg s.c. twice daily, in words
# [5] = Table 11, twice-daily 30 μg/kg s.c., day 28, mean ± SEM
smiles,measurement,setting,value
"CCCCCCCCCCCCCCCC(=O)N[C@@H](CCC(=O)N[C@@H](CCC(=O)NCCCC[C@H](NC(=O)[C@H](CC(C)C)NC(=O)[C@H](CCCCN)NC(=O)[C@H](CO)NC(=O)[C@H](CC(C)C)NC(=O)[C@H](CC(=O)O)NC(=O)[C@H](CO)NC(=O)[C@@H](NC(=O)[C@H](Cc1ccccc1)NC(=O)[C@@H](NC(=O)CNC(=O)[C@H](CCC(N)=O)NC(=O)C(C)(C)NC(=O)[C@@H](N)Cc1c[nH]cn1)[C@@H](C)O)[C@@H](C)O)C(=O)N[C@@H](CCC(=O)O)C(=O)N[C@@H](CCC(=O)O)C(=O)N[C@@H](CCC(N)=O)C(=O)N[C@@H](CCCNC(=N)N)C(=O)N[C@@H](CCC(N)=O)C(=O)NC(C)(C)C(=O)N[C@@H](CCC(=O)O)C(=O)N[C@@H](Cc1ccccc1)C(=O)N[C@H](C(=O)N[C@@H](CCC(=O)O)C(=O)N[C@@H](Cc1c[nH]c2ccccc12)C(=O)N[C@@H](CC(C)C)C(=O)N[C@@H](CCCCN)C(=O)N[C@@H](C)C(=O)N[C@H](C)C(=O)NCC(=O)N1CCC[C@H]1C(=O)N1CCC[C@H]1C(=O)N[C@@H](CO)C(=O)NC(C)(C)C(=O)N[C@@H](CCCCN)C(=O)N1CCC[C@H]1C(=O)N1CCC[C@H]1C(=O)N1CCC[C@H]1C(=O)N[C@@H](CCCCN)C(N)=O)[C@@H](C)CC)C(=O)O)C(=O)O [SEQ ID NO: 10, H-Aib-Q-G-T-F-T-S-D-L-S-K-L-K[gGlu-gGlu-Palm]-E-E-Q-R-Q-Aib-E-F-I-E-W-L-K-A-dAla-G-P-P-S-Aib-K-P-P-P-K-NH2] (H-H[Aib]QGTFTSDLSKLK([γGlu-γGlu-Palmitoyl])EEQRQ[Aib]EFIEWLKA[dA]GPPS[Aib]KPPPK-NH2)",solubility at 1 h,[1],> 10.1 mg/mL
same,Body mass compared to the DIO-Vehicle group,"[2]; 30 μg/kg s.c. twice daily, 28 days, in words",statistically significant decrease in body mass
same,Plasma insulin concentrations compared to DIO vehicle,[2]; [3],statistically significant reduction in plasma insulin concentrations
same,Plasma total cholesterol concentrations compared to DIO vehicle,[2]; [3],statistically significant reduction in plasma total cholesterol concentrations
same,Liver mass on day 28 compared to DIO animals treated with vehicle,[2]; [4],statistically significantly lower liver mass
same,Plasma alanine aminotransferase concentration on day 28 compared to DIO vehicle,[2]; [4],statistically significantly lower plasma alanine aminotransferase concentration
same,24 hour blood glucose profile following first treatment,"[2]; 30 μg/kg s.c., day 1, fed DIO mice, vs DIO control, in words",decrease in blood glucose concentrations below concentrations observed in DIO control mice
same,Body mass change,"[2]; Table 11, twice-daily 30 μg/kg s.c., 28 days, mean ± SEM",-7.14 ± 0.64 g
same,Whole body fat mass change,"[2]; Table 11, twice-daily 30 μg/kg s.c., QNMR predose vs day 26, mean ± SEM",-6.48 ± 0.90 g
same,Terminal liver mass (g),[2]; [5],+1.07 ± 0.04 g
same,Terminal plasma alanine aminotransferase (U/L),[2]; [5],+56.75 ± 4.65 U/L
same,Terminal plasma insulin (U/L),[2]; [5],+35.81 ± 2.79 U/L
same,Terminal plasma total cholesterol (mmol/L),[2]; [5],+4.28 ± 0.15 mmol/L

# — patent publication US10519211B2, “Compounds as peptidic GLP1/glucagon/GIP receptor agonists” (SANOFI, priority 2016, dated 2019)
